Values of other authors in patent US20240091148A1, “EUTECTIC SOLVENTS COMPRISING PHARMACEUTICAL AGENTS, AND METHODS OF MAKING AND USE THEREOF” (Novilla Pharmaceuticals, Inc., priority 2018, published 2024).

Conditions: values stated in the description, no method or source given

Structure (SMILES) | pKa
CCCC1O[C@@H]2C[C@H]3[C@@H]4CCC5=CC(=O)C=C[C@]5(C)[C@H]4[C@@H](O)C[C@]3(C)[C@]2(C(=O)CO)O1 (stereo partly drawn) [budesonide] | 13-15
CC(C)C(=O)OCC(=O)[C@@]12O[C@H](C3CCCCC3)O[C@@H]1C[C@H]1[C@@H]3CCC4=CC(=O)C=C[C@]4(C)[C@H]3[C@@H](O)C[C@@]12C [ciclesonide] | 14-16
C[C@@H]1C[C@H]2[C@@H]3CCC4=CC(=O)C=C[C@]4(C)[C@@]3(Cl)[C@@H](O)C[C@]2(C)[C@@]1(O)C(=O)CCl [mometasone] | 12-13

Further lines, results first:

pKa | Structure (SMILES)
13-16 | C[C@H]1C[C@H]2[C@@H]3CCC4=CC(=O)C=C[C@]4(C)[C@@]3(Cl)[C@@H](O)C[C@]2(C)[C@@]1(O)C(=O)CO [beclomethasone]
8.7-9.2 | CN(C)CCOC(C)(c1ccccc1)c1ccccn1 (stereo not drawn) [doxylamine]
12-14 | C[C@@H]1C[C@H]2[C@@H]3C[C@H](F)C4=CC(=O)C=C[C@]4(C)[C@@]3(F)[C@@H](O)C[C@]2(C)[C@@]1(O)C(=O)SCF [fluticasone]
